According to ChEMBL document CHEMBL4840337, “A Potent Fluorescent Reversible-Covalent Inhibitor of Cardiac Muscle Contraction” (ACS Med Chem Lett, 2021):
pIC50, pKd: −log10 of the molar value. The source made the active and inactive calls. No cut-off for these calls is given here.

How the values were obtained:
[1] = Covalent binding affinity to [15N]-labelled cNTnC (1 to 90 residues)- cTnI (136 to 163 residues) C35S mutant chimeric protein (unknown origin) expressed in Escherichia coli BL21 (DE3) assessed as dissociation constant by 2D 1H, 15N HSQC NMR spectroscopy analysis; parameters: species or system Homo sapiens
[2] = Inhibition of actomyosin ATPase activity in bovine cardiac myofibrils assessed as reduction in inorganic phosphate release using ATP as substrate preincubated for 30 mins in presence of pCa 4.5 followed by substrate addition by malachite green based assay; parameters: species or system Bos taurus
Homo sapiens [3] = species: Homo sapiens; assay: Binding affinity to BME-bound [15N]-labelled cNTnC (1 to 90 residues)- cTnI (136 to 163 residues) C35S mutant chimeric protein (unknown origin) expressed in Escherichia coli BL21 (DE3) up to 60 uM in the presence of DTT by 2D 1H, 15N HSQC NMR spectroscopy analysis; details: dose microM <=60
Homo sapiens [4] = species: Homo sapiens; assay: Binding affinity to [15N]-labelled cNTnC (1 to 90 residues)- cTnI (136 to 163 residues) A-Cys chimeric protein harboring C35S/C84S double mutant (unknown origin) assessed as NMR fast exchange by 2D 1H, 15N HSQC NMR spectroscopy analysis
[5] = Drug degradation assessed as new spectra with MW of 202 Da formation at 40 uM measured after incubation of 8-month old compound with [15N]-labelled cNTnC (1 to 90 residues)-cTnI (136 to 163 residues) C35S mutant chimeric protein (unknown origin) by 2D 1H, 15N HSQC NMR spectroscopy analysis; format: ADME
[6] = Binding affinity to calcium saturated His-tagged cNTnC (1 to 90 residues)- cTnI (136 to 163 residues) A-Cys chimeric protein harboring C35S/C84S double mutant (unknown origin) assessed as dissociation constant by flourescence spectroscopy analysis; parameters: species or system Homo sapiens
Homo sapiens [7] = species: Homo sapiens; assay: Binding affinity to BME-bound [15N]-labelled cNTnC (1 to 90 residues)- cTnI (136 to 163 residues) C35S mutant chimeric protein (unknown origin) expressed in Escherichia coli BL21 (DE3) up to 60 uM by 2D 1H, 15N HSQC NMR spectroscopy analysis; details: dose microM <=60
[8] = Aqueous solubility of the compound by 1D H-NMR spectroscopy analysis; format: physicochemical
[9] = Aqueous solubility of the compound by fluorescence spectroscopy analysis; format: physicochemical
Bos taurus [10] = species: Bos taurus; assay: Inhibition of actomyosin ATPase activity in bovine cardiac myofibrils assessed as reduction in inorganic phosphate release using ATP as substrate preincubated for 30 mins in presence of pCa 6 followed by substrate addition by malachite green based assay
[11] = Drug degradation assessed as new spectra with MW of 404 Da formation at 40 uM measured after incubation of 8-month old compound with [15N]-labelled cNTnC (1 to 90 residues)-cTnI (136 to 163 residues) C35S mutant chimeric protein (unknown origin) by 2D 1H, 15N HSQC NMR spectroscopy analysis; format: ADME
[12] = Reactivity with dithiothreitol in NMR buffer at 50 uM measured up to 24 hrs by 1D H-NMR analysis; details: time hrs <=24
[13] = Stability of the compound in NMR buffer at 50 uM in the absence of DTT measured after 40 hrs at 30 degC by 1D H-NMR analysis; format: physicochemical
Bos taurus [14] = species: Bos taurus; assay: Inhibition of actomyosin ATPase activity in bovine cardiac myofibrils assessed as reduction in inorganic phosphate release using ATP as substrate preincubated for 30 mins in presence of pCa 9 followed by substrate addition by malachite green based assay
[15] = Binding affinity to calcium saturated His tagged cNTnC (1 to 90 residues)- cTnI (136 to 163 residues) C35S mutant chimeric protein (unknown origin) assessed as dissociation constant by flourescence spectroscopy analysis; parameters: species or system Homo sapiens

N#C/C(=C\c1ccc(N(c2ccccc2)c2ccccc2)cc1)C(=O)O
pKd [1]: > 6.30
pIC50 [2]: 7.96
Activity (Homo sapiens [3]): Active
Activity (Homo sapiens [4]): inactive
Drug degradation [5]: Active
pKd [6]: 7.35
Activity (Homo sapiens [7]): inactive
solubility [8]: < 50 µM
solubility [9]: < 50 µM
inhibition (Bos taurus [10]): Active
Drug degradation [11]: Active
Activity [12]: Active
Stability [13]: Stable
inhibition (Bos taurus [14]): inactive
pKd [15]: 7.25
